Laboratory results reported in article PMC6009911, “Inhibition of human cytochromes P450 2A6 and 2A13 by flavonoids, acetylenic thiophenes and sesquiterpene lactones from Pluchea indica and Vernonia cinerea” (Journal of Enzyme Inhibition and Medicinal Chemistry, 2017).
Where two headings read alike, the source gives them in different places. Marks after values point to notes of the source that are not given here.

Assays:
CYP2A13 [1] = target: T1, CYP2A13 (Homo sapiens, UniProt Q16696); experiment: Inhibition of CYP2A13-mediated coumarin 7-hydroxylation, enzymatic reconstitution assay; type: biochemical; settings: for Ki: coumarin 0–40 µM
T1 construct: made in house
T1 sequence (Q16696 1-494): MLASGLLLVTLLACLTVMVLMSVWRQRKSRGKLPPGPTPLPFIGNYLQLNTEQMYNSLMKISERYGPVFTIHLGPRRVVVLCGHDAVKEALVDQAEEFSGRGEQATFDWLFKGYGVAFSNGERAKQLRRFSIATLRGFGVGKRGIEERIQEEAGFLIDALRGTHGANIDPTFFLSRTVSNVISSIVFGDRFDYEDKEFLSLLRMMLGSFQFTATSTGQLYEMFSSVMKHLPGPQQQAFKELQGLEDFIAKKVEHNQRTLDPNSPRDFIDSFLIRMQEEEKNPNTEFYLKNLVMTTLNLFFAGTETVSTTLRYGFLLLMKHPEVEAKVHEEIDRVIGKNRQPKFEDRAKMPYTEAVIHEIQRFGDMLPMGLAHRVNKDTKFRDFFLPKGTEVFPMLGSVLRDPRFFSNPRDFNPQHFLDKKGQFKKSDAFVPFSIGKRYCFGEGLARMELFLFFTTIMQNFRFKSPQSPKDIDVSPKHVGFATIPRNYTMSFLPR
Method: Inhibitory effect of plant extracts, fractions, subfractions and constituents was determined by inhibition assay on CYP2A6- and CYP2A13-mediated coumarin 7-hydroxylation. The recombinant human CYP2A6, CYP2A13 and rat NADPH-dependent cytochrome P450 oxidoreductase (CYPOR) proteins were expressed, purified, according to the methods previously described. […] Rate of 7-hydroxycoumarin product formation was measured on spectrofluorometer (Shimadzu, Kyoto, Japan) at λex = 355 nm, λem = 460 nm. Inhibition effects were determined by incubation with extracts, fractions or purified compounds with coumarin substrate in the reaction mixture and calculated as per cent relative inhibition compared with vehicle control reaction[20] and IC50 values were calculated using GraphPad Prism 5 (GraphPad Software Inc., La Jolla, CA).
(§1) MBI requires NADPH and time to generate reactive intermediate as inhibitor and ultimately inactivates the enzyme. MBI was evaluated by pre-incubation with each test inhibitor in the reaction at different time periods (0, 10, 20 and 30 min) in the presence of NADPH for time-dependent assay, as described. The apparent inactivation constants, KI and Kinact, were obtained from double reciprocal plots of kobs versus inhibitor concentrations by linear regression analysis on GraphPad Prism 5. Methoxsalen was used as a control mechanism-based inhibitor for time- and NADPH-dependent inhibition assays.

CYP2A6 [2] = target: T2, CYP2A6 (Homo sapiens, UniProt P11509); design: made in house; settings: ref Prasopthum et al., 2015, cited from earlier work; for Ki: coumarin 0–40 µM
T2 sequence (P11509 1-494): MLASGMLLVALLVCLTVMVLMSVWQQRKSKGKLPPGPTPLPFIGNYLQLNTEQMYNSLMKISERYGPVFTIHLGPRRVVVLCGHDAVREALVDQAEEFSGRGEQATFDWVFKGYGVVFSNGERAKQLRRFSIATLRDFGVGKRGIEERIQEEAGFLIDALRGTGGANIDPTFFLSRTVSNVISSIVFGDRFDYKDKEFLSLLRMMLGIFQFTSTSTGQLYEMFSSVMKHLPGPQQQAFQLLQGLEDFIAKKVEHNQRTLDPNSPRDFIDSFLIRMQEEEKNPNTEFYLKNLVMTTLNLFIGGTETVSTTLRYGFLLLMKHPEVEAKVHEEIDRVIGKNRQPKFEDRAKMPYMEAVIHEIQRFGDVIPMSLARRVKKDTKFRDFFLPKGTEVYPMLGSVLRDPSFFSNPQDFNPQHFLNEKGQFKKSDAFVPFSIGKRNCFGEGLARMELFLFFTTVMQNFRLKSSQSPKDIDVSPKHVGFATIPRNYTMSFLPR

CYP2A13 [3] = target: T1, CYP2A13; experiment: Mechanism-based (time- and NADPH-dependent) inactivation of CYP2A13; type: biochemical; settings: for kinact / KI (inactivation): pre-incubation 0-30 min with NADPH; for KI (inactivation): read-out: CYP2A13 KI (inactivation constant)
Method: as §1

CYP2A13 [4] = target: T1, CYP2A13; experiment: Effects of trapping agents and dialysis on inactivation of CYP2A13; type: biochemical; settings: CYP2A13 inhibition reaction mixture, probe coumarin; for activity at 20 µM: compound 20 µM; for activity at 10 µM: compound 10 µM
Method: as §1
To explore whether inactivation of CYP2As by thiophenes 9–11 and of CYP2A13 by hirsutinolides 5-8 could be reversed, the removal of reversible inhibitory compounds by dialysis and addition of trapping agents (GSH, semicarbazide, catalase or potassium ferricyanide) in the inhibition reaction mixture were performed. […] Similarly, mechanism-based inactivation of both CYP2A6 and CYP2A13 by thiophenes 9–11 could not be reversed (Table 3).

CYP2A6 [5] = target: T2, CYP2A6; settings: cited from earlier work
[6] = 10-min pre-incubation in the presence of NADPH, read-out: IC50 CYP2A13 Pre-incubation
[7] = coincubation, coumarin 2 µM, read-out: IC50 CYP2A13 Coincubation
[8] = read-out: Per cent remaining activity, 70 μM K3Fe(CN)6
[9] = read-out: Per cent remaining activity, 2 mM GSH
[10] = read-out: Per cent remaining activity, 5 mM semicarbazide
[11] = read-out: Per cent remaining activity, 2000 U catalase
[12] = read-out: Per cent remaining activity, Dialysis (+) NADPH
[13] = read-out: Per cent remaining activity, Dialysis (−) NADPH
[14] = read-out: Per cent remaining activity, Pre-incubation
[15] = read-out: CYP2A6 KI (inactivation constant), ref Prasopthum et al., 2015
[16] = 10-min pre-incubation in the presence of NADPH, read-out: IC50 CYP2A6 Pre-incubation
[17] = coincubation, coumarin 2 µM, read-out: IC50 CYP2A6 Coincubation
[18] = read-out: inactivation kinetic values (KI) against CYP2A6, literature values

| SMILES | CYP2A13 Mode of inhibition (CYP2A13 [1]) | IC50 (CYP2A13 [1]; [6]) [µM] | IC50 (CYP2A13 [1]; [7]) [µM] | Ki (CYP2A13 [1]) [µM] | CYP2A6 Mode of inhibition (CYP2A6 [2]) | kinact (CYP2A13 [3]) [s⁻¹] | KI (inactivation) (CYP2A13 [3]) [µM] | KI (inactivation) (CYP2A6 [5]; [15]) [µM] | CYP2A6 Kinact (CYP2A6 [5]; ref Prasopthum et al., 2015) | IC50 (CYP2A6 [2]; [16]) [µM] | IC50 (CYP2A6 [2]; [17]) [µM] | Ki (CYP2A6 [2]) [µM] | other results |
| --- | --- | --- | --- | --- | --- | --- | --- | --- | --- | --- | --- | --- | --- |
| O=c1cc(-c2ccc(O)cc2)oc2cc(O)cc(O)c12 [Apigenin 1, apigenin] | Mixed type | 0.04 ± 0.01 | 0.05 ± 0.01 | 0.014 ± 0.002 | Mixed type^b | – | – | – | – | – | – | – | – |
| O=c1c(O)c(-c2ccc(O)c(O)c2)oc2cc(O)cc(O)c12 [Quercetin 4, quercetin] | Competitive | 0.74 ± 0.02 | 0.8 ± 0.01 | 0.11 ± 0.01 | Competitive^b | – | – | – | – | – | – | – | – |
| CC(=O)OCC1=C2/C(=C\C3(C)CCC(O)(O3)C(C)CC2OC(=O)/C(C)=C/CO)OC1=O (stereo not drawn) [Hirsutinolide 8, 8α-(4-hydroxytigloyloxy)-hirsutinolide-13-O-acetate] | Mixed type | 15.9 ± 0.67 | 36.1 ± 1.39 | 15.8 ± 2.5 | Mixed type^b | 0.00167 | 8.62 ± 0.37 | 7.64 ± 1.24 | 0.09 ± 0.01^b | 13.1 ± 2.4 | 64.5 ± 5.8 | 42.3 ± 8.4 | activity at 20 µM (CYP2A13 [4]; [8]): 21.8 ± 1.85%; activity at 20 µM (CYP2A13 [4]; [9]): 25.8 ± 4.2%; activity at 20 µM (CYP2A13 [4]; [10]): 20.7 ± 2.92%; activity at 20 µM (CYP2A13 [4]; [11]): 19.4 ± 1.39%; activity at 20 µM (CYP2A13 [4]; [12]): 18.4 ± 1.1%; activity at 20 µM (CYP2A13 [4]; [13]): 92.4 ± 4.03%; activity at 20 µM (CYP2A13 [4]; [14]): 23.9 ± 3.17% |
| C=C(CO)C(=O)OC1CC(C)C2(O)CCC(C)(/C=C3/OC(=O)C(COC(C)=O)=C31)O2 (stereo not drawn) [Hirsutinolide 7, 8α-(4-hydroxymethacryloyloxy)-hirsutinolide-13-O-acetate] | Mixed type | 10.5 ± 0.49 | 23.3 ± 1.35 | 12.6 ± 1.26 | Mixed type^b | 0.001 | 8.67 ± 0.15 | 5.32 ± 0.29 | 0.03 ± 0.01^b | 6.8 ± 0.77 | 32.7 ± 2.2 | 20.4 ± 5.4 | KI, CYP2A13 (in Figure 2) (CYP2A13 [3]; time- and concentration-dependent inactivation): 8.67 ± 0.15; activity at 10 µM (CYP2A13 [4]; [8]): 21.4 ± 2.75%; activity at 10 µM (CYP2A13 [4]; [9]): 18.3 ± 1.54%; activity at 10 µM (CYP2A13 [4]; [10]): 26.6 ± 1.25%; activity at 10 µM (CYP2A13 [4]; [11]): 20.9 ± 5.18%; activity at 10 µM (CYP2A13 [4]; [12]): 21.4 ± 4.45%; activity at 10 µM (CYP2A13 [4]; [13]): 93.3 ± 2.1%; activity at 10 µM (CYP2A13 [4]; [14]): 22.2 ± 1.88% |
| C/C=C(/C)C(=O)O[C@H]1Cc2cc3ccc(=O)oc3cc2OC1(C)C [decursinol angelate, reference compound] | – | – | – | – | – | – | – | – | – | – | – | – | KI (inactivation) (CYP2A6 [5]; [18]): 2.42 µM |
| C=C(C)C(=O)OC1CC(C)C2(O)CCC(C)(/C=C3/OC(=O)C(COC(C)=O)=C31)O2 (stereo not drawn) [Hirsutinolide 5, 8α-(2-methylacryloyloxy)-hirsutinolide-13-O-acetate] | Mixed type | 4.5 ± 0.18 | 16.4 ± 3.1 | 5.61 ± 0.99 | Mixed type^b | 0.0005 | 0.92 ± 0.17 | 7.45 ± 0.62 | 0.05 ± 0.01^b | 8.64 ± 0.37 | 22.3 ± 2.5 | 15.1 ± 2.1 | activity at 10 µM (CYP2A13 [4]; [8]): 24.1 ± 0.62%; activity at 10 µM (CYP2A13 [4]; [9]): 28.2 ± 6.54%; activity at 10 µM (CYP2A13 [4]; [10]): 24.4 ± 2.54%; activity at 10 µM (CYP2A13 [4]; [11]): 20.3 ± 6.24%; activity at 10 µM (CYP2A13 [4]; [12]): 18.6 ± 0.94%; activity at 10 µM (CYP2A13 [4]; [13]): 86 ± 6.65%; activity at 10 µM (CYP2A13 [4]; [14]): 29.3 ± 2.53% |
| C#CCN(C)[C@H](C)Cc1ccccc1 [selegiline, reference compound] | – | – | – | – | – | – | – | – | – | – | – | – | KI (inactivation) (CYP2A6 [5]; [18]): 15.6 µM |
